According to patent US5993889A, “Trehalose phosphorylase, its preparation and use” (Kabushiki Kaisha Hayashibara Seibutsu Kagaku Kenkyujo, priority 1996, dated 1999):

T1: trehalose phosphorylase (Thermoanaerobacter brockii, UniProt Q8L164)
T1 construct: recombinant E. coli enzyme (pTTP4) equivalent
T1 sequence (Q8L164 2-774): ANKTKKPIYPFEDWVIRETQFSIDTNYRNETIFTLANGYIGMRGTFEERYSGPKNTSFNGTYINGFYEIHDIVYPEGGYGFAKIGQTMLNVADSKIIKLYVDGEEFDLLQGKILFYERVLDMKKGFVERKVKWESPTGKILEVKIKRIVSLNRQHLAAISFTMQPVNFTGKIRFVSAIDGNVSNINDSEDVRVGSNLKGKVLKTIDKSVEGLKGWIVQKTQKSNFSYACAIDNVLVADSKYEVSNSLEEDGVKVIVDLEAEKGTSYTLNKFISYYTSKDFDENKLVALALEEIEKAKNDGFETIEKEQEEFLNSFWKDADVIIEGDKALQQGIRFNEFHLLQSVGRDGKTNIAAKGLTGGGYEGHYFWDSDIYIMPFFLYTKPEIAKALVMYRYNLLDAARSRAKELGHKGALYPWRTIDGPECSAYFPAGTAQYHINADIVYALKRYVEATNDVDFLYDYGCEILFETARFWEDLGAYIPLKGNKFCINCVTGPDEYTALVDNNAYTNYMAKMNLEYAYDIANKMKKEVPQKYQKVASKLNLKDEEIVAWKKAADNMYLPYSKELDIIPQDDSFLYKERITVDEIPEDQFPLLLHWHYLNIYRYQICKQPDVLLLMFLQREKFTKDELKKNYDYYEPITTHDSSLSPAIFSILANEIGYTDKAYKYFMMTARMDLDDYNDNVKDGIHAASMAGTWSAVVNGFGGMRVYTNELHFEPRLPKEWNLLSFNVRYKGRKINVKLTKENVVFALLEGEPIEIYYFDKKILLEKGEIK

B1: trehalose phosphorylase: novel thermostable trehalose phosphorylase purified from Thermoanaerobium brockii, ATCC 35047; amino acid sequence of SEQ ID NO:4 (protein)
chain: T1 sequence (Q8L164 2-774)

Legend:
trehalose phosphorylase [1] = biological target: T1, trehalose phosphorylase; experiment: Trehalose phosphorylase activity assay: inhibition and activation by added substances; format: biochemical, Thermoanaerobium brockii; conditions: one mM
Protocol: (§1) The present trehalose phosphorylase activity is assayed as follows: Add 0.2 ml of an enzyme solution to 2 ml of 20 mM phosphate buffer (pH 7.0) containing 1.0 w/v % trehalose as a substrate, incubate the solution at 60° C. for 30 min, sample the reaction mixture in an amount of 0.5 ml, and incubate the sample at 100° C. for 10 min to suspend the enzymatic reaction. Add 0.5 ml of D-glucose oxidase/peroxidase reagent to the heated sample, stir the mixture, keep the mixture at 40° C. for 30 min, add 2.5 ml of 5-N hydrochloric acid, stir the resulting mixture, and measure the absorbance of the mixture at a wavelength of 525 nm. One unit of the enzyme activity is defined as the enzyme that forms one […] of D-glucose per one minute. The activity of maltose- and kojibiose-phosphorylases can be assayed similarly as the same assay as indicated above except that the trehalose as a substrate is respectively replaced with maltose and kojibiose.
Influences of temperatures and pHs on the present trehalose phosphorylase activity were studied in accordance with the assay for enzyme activity. To study the influence of temperatures, the enzyme was reacted at temperatures of about 50-85° C. in place of 60° C. as used in the enzyme assay. In the case of studying the influence of pHs, the enzyme was reacted at pHs of about 4-9 in place of the buffer's pH as used in the assay for the enzyme activity. In both cases, the enzymatic reactions were suspended similarly as in the enzyme assay, followed by quantifying the formed glucose. […] The thermal stability of the enzyme was determined by incubating the enzyme dissolved in 10 mM phosphate buffer (pH 7.0) at a temperature of about 40-85° C. for one hour, cooling the incubated enzyme, and assaying for the residual enzyme activity according to the enzyme assay. The pH stability of the enzyme was determined by dissolving the enzyme in buffers with different pHs of about 4-10, keeping each enzyme solution at 4° C. for 24 hours, adjusting each solution to give a pH of 7.0, and assaying for the residual enzyme activity according to the enzyme assay. […] The enzyme activity was inhibited by one mM Cu^++, Pb^++, Zn^++, Hg^++, Mg^++, or Mn^++.

trehalose phosphorylase [2] = biological target: T1, trehalose phosphorylase; experiment: Substrate specificity for saccharide-hydrolyzing reaction by trehalose phosphorylase (TLC); format: biochemical, Thermoanaerobium brockii; parameters: key: +: Hydrolyzed by the action of the present trehalose phosphorylase.; -: Not hydrolyzed by the action of the present trehalose phosphorylase; conditions: saccharide 2 w/v %, 10 units/g saccharide purified enzyme, 5 mM disodium hydrogenphosphate, 60° C., pH 7.0, 24 hours
Protocol: An aqueous solution of a saccharide selected from D-glucose, maltose, sucrose, lactose, trehalose, neotrehalose, cellobiose, melibiose, kojibiose, isomaltose, sophorose, gentibiose, nigerose, laminaribiose, maltopentaose, and 4-O-α-D-glucosyltrehalose was mixed with 10 units/g saccharide, d.s.b., of a purified trehalose phosphorylase obtained by the method in Experiment 2, and incubated in the presence of 5 mM disodium hydrogenphosphate at 60° C. and pH 7.0 for 24 hours. The saccharide concentration of each reaction solution was 2 w/v %. Pre-reaction solutions and post-reaction mixtures were subjected to thin layer chromatography (hereinafter abbreviated as "TLC") using "KIESELGEL 60 (20×20 cm)", an aluminum plate for TLC commercialized by Merck & Co., Inc., Rahway, USA. Samples were developed once at ambient temperature on the plate using 1-butanol/pyridine/water (=7:3:1 by volume) as a developing solvent system, and the plate was sprayed with 20 v/v % sulfuric acid/methanol solution, and heated at 110° C. for about 10 min for coloration. Comparing spots of the solutions and mixtures detected on the plates, it was checked whether the enzyme acted on the saccharides.

trehalose phosphorylase [3] = biological target: T1, trehalose phosphorylase; experiment: Specificity to acceptor in glucosyl-transferring saccharide-forming reaction by trehalose phosphorylase (TLC); format: biochemical, Thermoanaerobium brockii; conditions: used as donor in place of β-D-glucose-1-phosphoric acid
Protocol: An aqueous solution, which dissolved in an equal amount, by dry weight, […], […] obtained by the method in Experiment 2, and enzymatically reacted at 60° C. and pH 7.0 for 24 hours. Similarly as in Experiment 5, the pre-reaction solutions and the post-reaction mixtures were subjected to TLC, followed by coloring the plates. Comparing spots of the samples of the solutions and mixtures detected on the plates, it was judged whether transferred saccharides were formed based on newly detected spots of the post reaction mixtures. By macroscopically observing the coloration degree of the newly detected spots, the yield of the transferred saccharides was relatively evaluated.

[4] = Thermal and pH stability of trehalose phosphorylase (residual enzyme activity); format: physicochemical
Protocol: as §1, with “The activity of maltose- and kojibiose-phosphorylases can be assayed similarly as the same assay as indicated above except that the trehalose as a substrate is respectively replaced with maltose and kojibiose.” left out
(§2) Influences of temperatures and pHs on the present trehalose phosphorylase activity were studied in accordance with the assay for enzyme activity. […] In both cases, the enzymatic reactions were suspended similarly as in the enzyme assay, followed by quantifying the formed glucose. […] The thermal stability of the enzyme was determined by incubating the enzyme dissolved in 10 mM phosphate buffer (pH 7.0) at a temperature of about 40-85° C. for one hour, cooling the incubated enzyme, and assaying for the residual enzyme activity according to the enzyme assay. […]

[5] = Trehalose phosphorylase activity assay (specific activity, influence of temperature and pH); format: biochemical
Protocol: as §1
The yield of the purified enzyme specimen, obtained by the above purification steps, was about 25% with respect to the enzyme activity of the supernatant of the disrupted cell suspension. […] Protein was quantified according to the Lowry method using calf serum albumin as a standard protein.
as §2, with “assay. The pH stability of the enzyme was determined by dissolving the enzyme in buffers with different pHs of about 4-10, keeping each enzyme solution at 4° C. for 24 hours, adjusting each solution to give a pH of 7.0, and assaying for the residual enzyme activity according to the enzyme assay.” for “assay.”

[6] = Isoelectric point by polyacrylamide gel electrophoresis using ampholyte; format: physicochemical; conditions: electrophoresis using 2 w/v % ampholyte

Molecule | Decomposition (trehalose phosphorylase [2]) | also measured
O[C@H](CS)[C@H](O)CS (racemic) [dithiothreitol] |  | Activation and stabilization of the enzyme (trehalose phosphorylase [1]): Activated
OC[C@H]1O[C@H](O[C@H]2O[C@H](CO)[C@@H](O[C@H]3O[C@H](CO)[C@@H](O)[C@H](O)[C@H]3O)[C@H](O)[C@H]2O)[C@H](O)[C@@H](O)[C@@H]1O [4-O-α-D-glucosyltrehalose] | - | 
OC[C@H]1O[C@@H](O[C@H]2[C@H](O)[C@@H](O)C(O)O[C@@H]2CO)[C@H](O)[C@@H](O)[C@@H]1O (stereo partly drawn) [Cellobiose] | - | 
[Cu+2] [Cu^++] |  | Enzyme activity inhibition (trehalose phosphorylase [1]): inhibited
OC[C@H]1OC(O)[C@H](O)[C@@H](O)[C@@H]1O (stereo partly drawn) [D-Glucose] | - | 
OC[C@H]1O[C@@H](OC[C@H]2OC(O)[C@H](O)[C@@H](O)[C@@H]2O)[C@H](O)[C@@H](O)[C@@H]1O (stereo partly drawn) [Gentibiose] | - | 
[Hg+2] [Hg^++] |  | Enzyme activity inhibition (trehalose phosphorylase [1]): inhibited
OC[C@H]1O[C@H](OC[C@H]2OC(O)[C@H](O)[C@@H](O)[C@@H]2O)[C@H](O)[C@@H](O)[C@@H]1O (stereo partly drawn) [Isomaltose] | - | 
OC[C@H]1O[C@H](O[C@H]2C(O)O[C@H](CO)[C@@H](O)[C@@H]2O)[C@H](O)[C@@H](O)[C@@H]1O (stereo partly drawn) [Kojibiose] | - | 
OC[C@H]1O[C@@H](O[C@H]2[C@H](O)[C@@H](O)C(O)O[C@@H]2CO)[C@H](O)[C@@H](O)[C@H]1O (stereo partly drawn) [Lactose] | - | 
OC[C@H]1O[C@@H](O[C@H]2[C@H](O)[C@@H](CO)OC(O)[C@@H]2O)[C@H](O)[C@@H](O)[C@@H]1O (stereo partly drawn) [Laminaribiose] | - | 
OC[C@H]1O[C@H](O[C@H]2[C@H](O)[C@@H](O)[C@@H](O[C@H]3[C@H](O)[C@@H](O)[C@@H](O[C@H]4[C@H](O)[C@@H](O)[C@@H](O[C@H]5[C@H](O)[C@@H](O)C(O)O[C@@H]5CO)O[C@@H]4CO)O[C@@H]3CO)O[C@@H]2CO)[C@H](O)[C@@H](O)[C@@H]1O (stereo partly drawn) [Maltopentaose] | - | 
OC[C@H]1O[C@H](O[C@H]2[C@H](O)[C@@H](O)[C@H](O)O[C@@H]2CO)[C@H](O)[C@@H](O)[C@@H]1O [Maltose] | - | 
OC[C@H]1O[C@H](OC[C@H]2OC(O)[C@H](O)[C@@H](O)[C@@H]2O)[C@H](O)[C@@H](O)[C@H]1O (stereo partly drawn) [Melibiose] | - | 
[Mg+2] [Mg^++] |  | Enzyme activity inhibition (trehalose phosphorylase [1]): inhibited
[Mn+2] [Mn^++] |  | Enzyme activity inhibition (trehalose phosphorylase [1]): inhibited
OC[C@H]1O[C@@H](O[C@H]2O[C@H](CO)[C@@H](O)[C@H](O)[C@H]2O)[C@H](O)[C@@H](O)[C@@H]1O [Neotrehalose] | - | 
OC[C@H]1O[C@H](O[C@H]2[C@H](O)[C@@H](CO)OC(O)[C@@H]2O)[C@H](O)[C@@H](O)[C@@H]1O (stereo partly drawn) [Nigerose] | - | 
[Pb+2] [Pb^++] |  | Enzyme activity inhibition (trehalose phosphorylase [1]): inhibited
OC[C@H]1O[C@@H](O[C@H]2C(O)O[C@H](CO)[C@@H](O)[C@@H]2O)[C@H](O)[C@@H](O)[C@@H]1O (stereo partly drawn) [Sophorose] | - | 
OC[C@H]1O[C@@](CO)(O[C@H]2O[C@H](CO)[C@@H](O)[C@H](O)[C@H]2O)[C@@H](O)[C@@H]1O [Sucrose] | - | 
OC[C@H]1O[C@H](O[C@H]2O[C@H](CO)[C@@H](O)[C@H](O)[C@H]2O)[C@H](O)[C@@H](O)[C@@H]1O [Trehalose] | + | 
[Zn+2] [Zn^++] |  | Enzyme activity inhibition (trehalose phosphorylase [1]): inhibited
O=P(O)(O)O[C@H]1O[C@H](CO)[C@@H](O)[C@H](O)[C@H]1O [α-D-glucose-1-phosphoric acid] |  | Formation of glucosyl-transferred saccharide when used as saccharide donor (trehalose phosphorylase [3]): No glucosyl-transferred saccharide was obtained
B1 |  | Thermal stability ([4]; 10 mM phosphate buffer pH 7.0, one hour): up to 60 °C; pH stability ([4]; 4° C. for 24 hours): 6.0-9.0; Optimum pH ([5]; incubated at 60° C. for 30 min): 7.0-7.5; Optimum temperature ([5]; incubated at pH 7.0 for 30 min): about 70 °C; Specific activity ([5]; purified enzyme specimen, trehalose substrate, 60° C., pH 7.0): 78.2 units/mg protein; Isoelectric point (pI) [6]: 5.4±0.5
